Assay results published in patent US20230094952A1, “Method for Culturing Hematopoietic Stem Cells” (Sumitomo Pharma Co., Ltd., priority 2019, published 2023).

Legend:
[1] = test system: human CD34-positive fraction; assay: Ex vivo culture of 10000 human CD34-positive cells before transplantation (cell count); assay type: cell-based; settings: compound 0.003 μM; 10000 CD34-positive cells cultured 1 week
Description: (§1) Each of artemether and the compound of Example 1-23 was prepared with the cell culture medium at a final concentration of 0.003 μM or 0.01 μM, and added to the above human cells seeded after classification (166 cells were seeded per well) to a final volume of 200 μL/well to act thereon. Thereafter, for each condition, 10000 cells in total of a CD34-positive fraction were cultured in a CO2 incubator under conditions of 37° C. and 5% CO2 for 1 week, and the cell count was determined. Among the cells after culture, 10000 cells, a number equal to the number of cells before culture, were transplanted into an immunocompromised NOG mouse exposed to a lethal dose of radiation. As a comparative sample, 10000 fresh cord blood-derived CD34-positive cells (uncultured) were transplanted. For peripheral blood donor chimerism at each specified time after transplantation, the human CD45-positive cell count and the mouse CD45-positive cell count were determined by using a human-specific CD45 antibody and a mouse-specific CD45 antibody, and the peripheral blood donor chimerism was represented as the proportion of human CD45-positive cells to the total of human CD45-positive cells and mouse CD45-positive cells (chimerism rate).

[2] = test system: human hematopoietic stem cells (CD34-positive cells); assay: Functional test with human cells: colony assay (CFU-GEMM) after culture; assay type: cell-based
Description: Each of artemether and the compounds of Example 1-23, Example 1-16, and Example 1-7 was prepared with the cell culture medium at nine final concentrations (0.001 μM, 0.003 μM, 0.01 μM, 0.03 μM, 0.1 μM, 0.3 μM, 1 μM, 3 μM, 10 μM), and added to the above human cells seeded after classification to a final volume of 200 μL/well to act thereon. UM171 (35 nM) was added to some of them to examine the presence or absence of synergistic effect. Thereafter, the cells were cultured in a CO2 incubator under conditions of 37° C. and 5% CO2 for 1 week, collected, and then seeded in a 96-well plate to place one CD34-positive cell in each well by using a FACS Aria III cell sorter, and cultured with a MethoCult H4435 ([…] Technologies Inc.) for 2 weeks. After culture, each well was photographed with an optical microscope (manufactured by KEYENCE CORPORATION), and the colony count was determined by visual observation and the form of each colony was determined by visual observation. Colony Formation Unit-Granulocytes, Erythroids, Macrophages, Megakaryocytes (CFU-GEMM), which are derived from myeloid progenitor cells, the erythroid burst colony-forming cells Burst Forming Unit-Erythroids (BFU-E), the granulocyte/macrophage colony-forming cells Colony Formation Unit-Granulocytes, Macrophages (CFU-GM) were determined on the basis of the forms of colonies, and the numbers were counted.

[3] = test system: human CD34-positive cells transplanted into NOG mouse; assay: In vivo engraftment test with human cells in irradiated NOG mouse (peripheral blood donor chimerism); settings: cells cultured with compound 0.003 μM, 10000 cells transplanted
Description: as §1

[4] = test system: human hematopoietic stem cells (CD34-positive cells); assay: Confirmation test with human cells: 1-week culture of cord blood Lineage-negative CD34-positive cells, flow cytometry; assay type: cell-based
From the text: Collection of Human Cord Blood-Derived Mononuclear Cells Human cord blood-derived mononuclear cells were subjected to removal of erythrocytes and concentration treatment by using EasySep RBC Depletion Reagent (manufactured by […] Technologies Inc.) to obtain a cell population including hematopoietic stem cells.
First, a CD34-positive cell fraction was partially purified from the thus-obtained cell population including hematopoietic stem cells by using an EASYSep Human Cord Blood CD34 Positive Selection Kit II (manufactured by […] Technologies Inc.). The concentrated CD34-positive cells in a cell population enriched with hematopoietic stem cells and progenitor cells were stained with antibodies for the following cell surface markers.
Staining with the antibodies was performed at 4° C., and the cells were incubated for 30 minutes. For staining with the CD34 antibody, the cells were incubated for 90 minutes. Dead cell staining was performed with SYTOX Blue Dead Cell Stain (manufactured by Life Technologies) in accordance with a method recommended by the manufacturer.
Flow cytometry analysis and cell classification (cell sorting) were performed with a FACS Aria III cell sorter (manufactured by BD Biosciences), wherein fractions being Lineage-negative and CD34-positive were regarded as hematopoietic stem cells, and analysis was performed with the software FlowJo (manufactured by Tree Star, Inc.).
The cells after classification were seeded in a 96-well plate. […]
Each of artemether and the compounds of Example 1-23, Example 1-16, and Example 1-7 was prepared with the cell culture medium at nine final concentrations (0.001 μM, 0.003 μM, 0.01 μM, 0.03 μM, 0.1 μM, 0.3 μM, 1 μM, 3 μM, 10 μM), and added to the above human cells seeded after classification to a final volume of 200 μL/well to act thereon. UM171 (35 nM) was added to some of them to examine the presence or absence of synergistic effect. Thereafter, the cells were cultured in a CO2 incubator under conditions of 37° C. and 5% CO2 for 1 week. Viable cell counts and CD34-positive cell counts were analyzed.
After culture, the cells were stained with the antibodies for the surface markers CD34, CD11b, CD14, CD19, CD20, CD235ab, CD3, CD4, CD56, and CD8a, and the visible cell count and the ratio and post-growth cell count of a CD34 fraction (CD34^+, Lin^−) were measured by using a FACS Aria III cell sorter, and analyzed by using FlowJo (BD Biosciences). The CD34 fraction is a fraction including hematopoietic stem cells and multipotent progenitor cells as main components.

[5] = UM171 (35 nM) and artemether 0.001 μM
[6] = UM171 (35 nM) and artemether 0.003 μM
[7] = UM171 (35 nM) and artemether 0.01 μM
[8] = UM171 (35 nM) and artemether 0.03 μM
[9] = UM171 (35 nM) and artemether 0.1 μM
[10] = UM171 (35 nM) and artemether 0.3 μM
[11] = UM171 (35 nM) and artemether 1 μM
[12] = compound 0.001 μM, 1 week culture then 2 weeks MethoCult H4435, no UM171
[13] = compound 0.003 μM, 1 week culture then 2 weeks MethoCult H4435, no UM171
[14] = compound 0.01 μM, 1 week culture then 2 weeks MethoCult H4435, no UM171
[15] = compound 0.03 μM, 1 week culture then 2 weeks MethoCult H4435, no UM171
[16] = compound 0.1 μM, 1 week culture then 2 weeks MethoCult H4435, no UM171
[17] = compound 0.3 μM, 1 week culture then 2 weeks MethoCult H4435, no UM171
[18] = compound 1 μM, 1 week culture then 2 weeks MethoCult H4435, no UM171
[19] = compound 3 μM, 1 week culture then 2 weeks MethoCult H4435, no UM171
[20] = compound 10 μM, 1 week culture then 2 weeks MethoCult H4435, no UM171
[21] = compound 0.001 μM, 180 cells before culture, no UM171
[22] = compound 0.003 μM, 180 cells before culture, no UM171
[23] = compound 0.01 μM, 180 cells before culture, no UM171
[24] = compound 0.03 μM, 180 cells before culture, no UM171
[25] = compound 0.1 μM, 180 cells before culture, no UM171
[26] = compound 0.3 μM, 180 cells before culture, no UM171
[27] = compound 1 μM, 180 cells before culture, no UM171
[28] = compound 3 μM, 180 cells before culture, no UM171
[29] = compound 10 μM, 180 cells before culture, no UM171

SMILES: CO[C@H]1O[C@@H]2O[C@@]3(C)CC[C@H]4[C@H](C)CC[C@@H]([C@H]1C)[C@@]24OO3 [Example 1-30, artemether, reference compound]
- Viable cell count [1]: 95954 cell
- Colony count (colony) after culture (CFU-GEMM) [2, 5]: 40.1 colony
- Colony count (colony) after culture (CFU-GEMM) [2, 6]: 204.0 colony
- Colony count (colony) after culture (CFU-GEMM) [2, 7]: 53.8 colony
- Colony count (colony) after culture (CFU-GEMM) [2, 8]: 46.8 colony
- Colony count (colony) after culture (CFU-GEMM) [2, 9]: 94.0 colony
- Colony count (colony) after culture (CFU-GEMM) [2, 10]: 40.0 colony
- Colony count (colony) after culture (CFU-GEMM) [2, 11]: 0.0 colony
- Colony count (colony) after culture (CFU-GEMM) [2, 12]: 40.3 colony
- Colony count (colony) after culture (CFU-GEMM) [2, 13]: 61.4 colony
- Colony count (colony) after culture (CFU-GEMM) [2, 14]: 33.2 colony
- Colony count (colony) after culture (CFU-GEMM) [2, 15]: 34.8 colony
- Colony count (colony) after culture (CFU-GEMM) [2, 16]: 37.0 colony
- Colony count (colony) after culture (CFU-GEMM) [2, 17]: 36.7 colony
- Colony count (colony) after culture (CFU-GEMM) [2, 18]: 63.9 colony
- Colony count (colony) after culture (CFU-GEMM) [2, 19]: 31.7 colony
- Colony count (colony) after culture (CFU-GEMM) [2, 20]: 0.0 colony
- Donor chimerism ([3]; 1 month after transplantation): 0.041 ± 0.022%
- Donor chimerism ([3]; 2 months after transplantation): 0.605 ± 0.95%
- Donor chimerism ([3]; 3 months after transplantation): 2.108 ± 2.479%
- CD34-positive cell count [4, 5]: 36 cell
- Viable cell count [4, 5]: 301 cell
- CD34-positive cell count [4, 6]: 102 cell
- Viable cell count [4, 6]: 765 cell
- CD34-positive cell count [4, 7]: 43 cell
- Viable cell count [4, 7]: 323 cell
- CD34-positive cell count [4, 8]: 56 cell
- Viable cell count [4, 8]: 216 cell
- CD34-positive cell count [4, 9]: 93 cell
- Viable cell count [4, 9]: 376 cell
- CD34-positive cell count [4, 10]: 9 cell
- Viable cell count [4, 10]: 240 cell
- CD34-positive cell count [4, 11]: 0 cell
- Viable cell count [4, 11]: 31 cell
- CD34-positive cell count [4, 21]: 59 cell
- Viable cell count [4, 21]: 484 cell
- CD34-positive cell count [4, 22]: 88 cell
- Viable cell count [4, 22]: 921 cell
- CD34-positive cell count [4, 23]: 57 cell
- Viable cell count [4, 23]: 498 cell
- CD34-positive cell count [4, 24]: 23 cell
- Viable cell count [4, 24]: 298 cell
- CD34-positive cell count [4, 25]: 45 cell
- Viable cell count [4, 25]: 555 cell
- CD34-positive cell count [4, 26]: 61 cell
- Viable cell count [4, 26]: 550 cell
- CD34-positive cell count [4, 27]: 35 cell
- Viable cell count [4, 27]: 479 cell
- CD34-positive cell count [4, 28]: 26 cell
- Viable cell count [4, 28]: 380 cell
- CD34-positive cell count [4, 29]: 27 cell
- Viable cell count [4, 29]: 250 cell

SMILES: C[C@H]1[C@H](C(N)=O)O[C@@H]2O[C@@]3(C)CC[C@H]4[C@H](C)CC[C@@H]1[C@@]24OO3 [Example 1-16, (3R,5aS,6R,8aS,9R,10R,12R,12aR)-3,6,9-Trimethyldecahydro-12H-3,12-epoxypyrano[4,3-j][1,2]benzodioxepine-10-carboxamide]
- Colony count (colony) after culture (CFU-GEMM) [2, 12]: 130.6 colony
- Colony count (colony) after culture (CFU-GEMM) [2, 13]: 112.2 colony
- Colony count (colony) after culture (CFU-GEMM) [2, 14]: 65.1 colony
- Colony count (colony) after culture (CFU-GEMM) [2, 15]: 68.8 colony
- Colony count (colony) after culture (CFU-GEMM) [2, 16]: 40.6 colony
- Colony count (colony) after culture (CFU-GEMM) [2, 17]: 22.9 colony
- Colony count (colony) after culture (CFU-GEMM) [2, 18]: 15.7 colony
- Colony count (colony) after culture (CFU-GEMM) [2, 19]: 10.0 colony
- Colony count (colony) after culture (CFU-GEMM) [2, 20]: 8.8 colony
- CD34-positive cell count [4, 21]: 143 cell
- Viable cell count [4, 21]: 1306 cell
- CD34-positive cell count [4, 22]: 173 cell
- Viable cell count [4, 22]: 1224 cell
- CD34-positive cell count [4, 23]: 116 cell
- Viable cell count [4, 23]: 1301 cell
- CD34-positive cell count [4, 24]: 130 cell
- Viable cell count [4, 24]: 590 cell
- CD34-positive cell count [4, 25]: 92 cell
- Viable cell count [4, 25]: 811 cell
- CD34-positive cell count [4, 26]: 32 cell
- Viable cell count [4, 26]: 549 cell
- CD34-positive cell count [4, 27]: 13 cell
- Viable cell count [4, 27]: 368 cell
- CD34-positive cell count [4, 28]: 13 cell
- Viable cell count [4, 28]: 300 cell
- CD34-positive cell count [4, 29]: 3 cell
- Viable cell count [4, 29]: 264 cell

SMILES: C[C@H]1[C@H](c2ccco2)O[C@@H]2O[C@@]3(C)CC[C@H]4[C@H](C)CC[C@@H]1[C@@]24OO3 [Example 1-7, (3R,5aS,6R,8aS,9R,10R,12R,12aR)-10-(Furan-2-yl)-3,6,9-trimethyldecahydro-12H-3,12-epoxypyrano[4,3-j][1,2]benzodioxepine]
- Colony count (colony) after culture (CFU-GEMM) [2, 12]: 43.8 colony
- Colony count (colony) after culture (CFU-GEMM) [2, 13]: 33.8 colony
- Colony count (colony) after culture (CFU-GEMM) [2, 14]: 74.3 colony
- Colony count (colony) after culture (CFU-GEMM) [2, 15]: 83.0 colony
- Colony count (colony) after culture (CFU-GEMM) [2, 16]: 64.1 colony
- Colony count (colony) after culture (CFU-GEMM) [2, 17]: 19.5 colony
- Colony count (colony) after culture (CFU-GEMM) [2, 18]: 0.0 colony
- Colony count (colony) after culture (CFU-GEMM) [2, 19]: 0.0 colony
- Colony count (colony) after culture (CFU-GEMM) [2, 20]: 0.0 colony
- CD34-positive cell count [4, 21]: 175 cell
- Viable cell count [4, 21]: 1314 cell
- CD34-positive cell count [4, 22]: 113 cell
- Viable cell count [4, 22]: 1013 cell
- CD34-positive cell count [4, 23]: 150 cell
- Viable cell count [4, 23]: 1115 cell
- CD34-positive cell count [4, 24]: 86 cell
- Viable cell count [4, 24]: 905 cell
- CD34-positive cell count [4, 25]: 80 cell
- Viable cell count [4, 25]: 693 cell
- CD34-positive cell count [4, 26]: 5 cell
- Viable cell count [4, 26]: 439 cell
- CD34-positive cell count [4, 27]: 4 cell
- Viable cell count [4, 27]: 196 cell
- CD34-positive cell count [4, 28]: 0 cell
- Viable cell count [4, 28]: 202 cell
- CD34-positive cell count [4, 29]: 0 cell
- Viable cell count [4, 29]: 181 cell
